From patent US20230049917A1, “Pharmaceutical Composition of CASR Modulators and Methods and Uses Thereof” (Lupin Limited, priority 2019, published 2023)
Where “and” joins values, the source holds several entries; their conditions need not be identical. Equal entries are not always repeated.

Test system: iPTH
Assay: Phase 2 Main Study: iPTH change from baseline in CKD patients with SHPT
Format: in vivo, human
Details: for iPTH levels reduced from baseline (FIG. 1) / mean percentage suppression in iPTH from baseline, peak, Day 90, 2 to 4 hours post-dose (exploratory analysis) / mean percentage suppression in iPTH from baseline at the end of 90 days / proportion of patients with ≥30% reduction in iPTH from baseline at end of 90 days (responder rate): patients on dialysis
Protocol: A randomized, double-blind, placebo-controlled phase 2 clinical study was conducted to assess the efficacy, pharmacokinetics (PK), pharmacodynamics (PD) and safety of 2-methyl-5-((2R,4S)-2-((((R)-1-(naphthalen-1-yl)ethyl)amino)methyl) chroman yl)benzoic acid, hydrochloride (Compound 3), as a monotherapy in patients with CKD with secondary hyperparathyroidism (SHPT). The patients enrolled in the study were either on dialysis or not on dialysis. Patients could continue taking doses (whether stable dosing or otherwise) of calcium supplements, phosphate binders, vitamin D, vitamin D analogues or a combination thereof for the treatment of SHPT in combination with Compound 3. Patients can take at least one calcium supplement, phosphate binder, vitamin D, vitamin D analogue or a combination thereof concurrently or concomitantly with Compound 3. Dosing for such calcium supplements, phosphate binders, vitamin D, vitamin D analogues or a combination thereof for the treatment of SHPT can be individualized based on patient's iPTH levels, and/or can correlate with doses presently used for the treatment of SHPT.
This was a double-blind, randomized, placebo-controlled, multicenter study with an additional non-randomized open-label arm conducted in patients with secondary hyper-parathyroidism (SHPT) associated with CKD which was further stratified in 2 groups: on dialysis and not on dialysis. The iPTH levels of patients in the “on dialysis” group were in a range of 428.2 pg/ml to 1240.6 pg/ml (mean 857.76 pg/ml) while those in the “not on dialysis” group were in a range of 125.0 pg/ml to 654.7 pg/ml (mean 297.83 pg/ml).
Total 179 patients were enrolled in this study of which 108 patients were on dialysis and 71 were not on dialysis. Patients of on dialysis group were further randomized to 3 subgroups administering 10 mg Compound 3, 25 mg Compound 3, or placebo once daily in a double blind fashion enrolling 35 patients, 36 patients and 18 patients, respectively, and an additional non-randomized open label arm enrolling 19 patients receiving 20 mg Compound 3, twice daily. A total of 98 patients completed the study. 10 patients discontinued the study. None of the patients discontinued the study due to adverse drug reactions.
Patients on not on dialysis group were randomized to two treatment subgroups administering 10 mg Compound 3, or placebo once daily in a double blind fashion enrolling 37 and 18 patients, respectively, and an additional non-randomized open label arm enrolling 16 patients receiving 5 mg Compound 3, twice daily. 4 patients discontinued the study. None of the patients discontinued the study due to adverse drug reactions.
The efficacy, PK, PD and safety of Compound 3, as a monotherapy in patients with CKD with secondary hyperparathyroidism (SHPT), were assessed. One objective of the study was to evaluate the mean percentage change in iPTH from baseline at the end of 90 days. Yet another objective of the study was to determine the proportion of patients with >30% reduction in iPTH from baseline at the end of 90 days. Yet another objective of the study was to ensure safety of patients.
For efficacy assessments, the primary efficacy assessment included measurement of iPTH and the exploratory efficacy assessment included measurement of parathyroid gland size at scheduled time points. Blood samples for measurement of iPTH were collected during Day −30 to Day −1 (Screening Period); Day 1; Day 8+/−3 days; Day 15+/−3 days; Day 30+/−3 days; Day 60+/−3 days; and Day 90+/−3 days (EOT/Early Discontinuations). Two blood samples were collected during Screening Period and higher of these 2 values was considered as a baseline value. During treatment period of the Main Study, blood samples were collected on Day 30, Day 60, and Day 90. If the blood sample collected on Day 90 could not be analysed for any reason, the second blood sample had to be collected within 3 days of end of treatment (EOT). […]

[1] = patients not on dialysis, 10 mg QD

Cc1ccc([C@@H]2C[C@H](CN[C@H](C)c3cccc4ccccc34)Oc3ccccc32)cc1C(=O)O.Cl [Compound 3, 2-methyl-5-((2R,4S)-2-((((R)-1-(naphthalen-1-yl)ethyl)amino)methyl)chroman-4-yl)benzoic acid hydrochloride]
iPTH levels reduced from baseline (FIG. 2) (patients not on dialysis, 5 mg BID): more than 30%
mean percentage suppression in iPTH from baseline at the end of 90 days (2 to 4 hours post-dose), exploratory analysis (patients not on dialysis, 5 mg BID open label arm): −55.03%
iPTH levels reduced from baseline (FIG. 2) [1]: more than 30%
mean percentage suppression in iPTH from baseline at the end of 90 days (2 to 4 hours post-dose), exploratory analysis [1]: −48.07%
mean percentage suppression in iPTH versus Placebo at the end of Day 90 (patients not on dialysis, 10 mg QD and 5 mg BID): No significant difference
difference in proportion of patients who achieved ≥30% reduction in iPTH from baseline at the end of 90 days versus Placebo (patients not on dialysis, QD or BID dosing regimen, 10 mg per day): not significant
iPTH levels reduced from baseline (FIG. 1) (10 mg QD): 25.65%
mean percentage suppression in iPTH from baseline, peak, Day 90, 2 to 4 hours post-dose (exploratory analysis) (10 mg QD): −79.54%
mean percentage suppression in iPTH from baseline at the end of 90 days (10 mg QD, per protocol): −25.65%
iPTH levels reduced from baseline (FIG. 1) (20 mg BID): more than 30%
mean percentage suppression in iPTH from baseline at the end of 90 days (20 mg BID open label arm): −82.42%
mean percentage suppression in iPTH from baseline, peak, Day 90, 2 to 4 hours post-dose (exploratory analysis) (20 mg BID open label arm): −93.02%
proportion of patients with ≥30% reduction in iPTH from baseline at end of 90 days (responder rate) (20 mg BID, hydrochloride): 93% and ~90%
iPTH levels reduced from baseline (FIG. 1) (25 mg QD): more than 30%
mean percentage suppression in iPTH from baseline, peak, Day 90, 2 to 4 hours post-dose (exploratory analysis) (25 mg QD): −85.79%
proportion of patients with ≥30% reduction in iPTH from baseline at end of 90 days (responder rate) (25 mg QD): around 80%
mean percentage suppression in iPTH from baseline at the end of 90 days (25 mg QD, per protocol): −56.65%
